We go through 34 compounds from patent US20250214976A1, “GPR35 MODULATORS AND USES THEREOF” (Crossignal Therapeutics, Inc., priority 2022, published 2025).

The test addresses T1, human GPR35 (Homo sapiens, UniProt Q9HC97).
T1 construct: expressed in transfected cells; host or cells: HEK293
Description: Luciferase Reporter Assay (YAP responsive element) in HEK293 cells stably transfected with human GPR35. The class given is cell-based. The settings on record: overnight incubation. As to the method:
HEK293 cells stably transfected with human GPR35 were maintained in Dulbecco's Modified Eagle Medium (DMEM) supplemented with 10% FBS and 300 μg/mL Zeocin and 200 μg/mL Hygromycin at 37° C., 10% CO2. On Day 1, cells were plated in poly-D-lysine coated 96-well tissue culture plate in regular growth medium (DMEM/10% FBS/300 μg/mL Zeocin/200 μg/mL Hygromycin. On the next day, luciferase reporter plasmid DNA with YAP responsive element was transfected into cells using lipofectamine 2000 (Invitrogen) following manufacture's protocol. After transfection for 6 hr., cells were treated with testing compounds in fasting DMEM medium (phenol red free, FBS free) at varying compound concentrations ranging from 10 μM to […] in a 3-fold serial diluted fashion. After an overnight incubation, the luciferase activities were measured with SteadyLite Plus Kit (PerkinElmer) according to manufacturer's protocol. IC50 was determined by fitting the dose-response data to a four-parameter logistic curve using GraphPad Prism.
The symbol “+” indicates IC50 is greater than […]. “++” indicates IC50>100 nM but ≤[…]. “+++” indicates IC50≤100 nM.

T1 sequence (Q9HC97 whole entry): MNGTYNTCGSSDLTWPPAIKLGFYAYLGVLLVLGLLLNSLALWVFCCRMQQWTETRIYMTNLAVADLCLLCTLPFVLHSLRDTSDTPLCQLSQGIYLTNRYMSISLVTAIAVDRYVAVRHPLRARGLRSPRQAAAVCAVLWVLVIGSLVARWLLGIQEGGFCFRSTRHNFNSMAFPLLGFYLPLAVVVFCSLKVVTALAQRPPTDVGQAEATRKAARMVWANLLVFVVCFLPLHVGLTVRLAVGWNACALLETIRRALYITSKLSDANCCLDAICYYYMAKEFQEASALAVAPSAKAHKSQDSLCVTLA

`C[C@H](Oc1ccc(NC(=O)c2coc3cc(-c4nnn[nH]4)c(F)cc23)cc1)c1ccc(F)cc1Cl` (single isomer, unassigned) [Compound 1-25] came in with an IC50 above 1000 nM.
For `C[C@@H](Oc1ccc(NC(=O)c2coc3cc(-c4nnn[nH]4)c(F)cc23)cc1)c1ccc(F)cc1Cl` (single isomer, unassigned) [Compound 1-26], the IC50 is above 1000 nM.
`C[C@H](Oc1ccc(NC(=O)c2coc3cc(-c4nnn[nH]4)c(F)cc23)cc1F)C(F)(F)F` (single isomer, unassigned) [Compound 1-30] came in with an IC50 of at most 100 nM.
With `C[C@@H](Oc1ccc(NC(=O)c2coc3cc(-c4nnn[nH]4)c(F)cc23)cc1F)C(F)(F)F` (single isomer, unassigned) [Compound 1-31], the 50% inhibitory concentration (IC50) lay in the range of 100 to 1000 nM.
Compound `O=C(Nc1ccc(O[C@H]2CCC(F)(F)C2)c(F)c1)c1coc2cc(-c3nnn[nH]3)c(F)cc12` (single isomer, unassigned) [Compound 1-36] returned an IC50 of at most 100 nM.
Turning to `O=C(Nc1ccc(O[C@@H]2CCC(F)(F)C2)c(F)c1)c1coc2cc(-c3nnn[nH]3)c(F)cc12` (single isomer, unassigned) [Compound 1-37], the IC50 was at most 100 nM.
`O=C(Nc1ccc(OC2CCCC2)c(F)c1)c1coc2cc(-c3nnn[nH]3)ccc12` [Compound 1-1, N-(4-(cyclopentyloxy)-3-fluorophenyl)-6-(1H-tetrazol-5-yl)benzofuran-3-carboxamide]: the IC50 is at most 100 nM.
Take `O=C(Nc1ccc(OC2CCC2)c(F)c1)c1coc2cc(-c3nnn[nH]3)ccc12` [Compound 1-2, N-(4-cyclobutoxy-3-fluorophenyl)-6-(1H-tetrazol-5-yl)benzofuran-3-carboxamide]: the IC50 is at most 100 nM.
The figure for `O=C(O)c1ccc2c(C(=O)Nc3ccc(OC4CCC4)c(F)c3)coc2c1` [Compound 1-3, 3-((4-cyclobutoxy-3-fluorophenyl)carbamoyl)benzofuran-6-carboxylic acid] is above 1000 nM.
The figure for `O=C(Nc1ccc(OC2CCC2)c(F)c1)c1coc2cc(OCc3nnn[nH]3)ccc12` [Compound 1-4, 6-((1H-tetrazol-5-yl)methoxy)-N-(4-cyclobutoxy-3-fluorophenyl)benzofuran-3-carboxamide] is above 1000 nM; for `O=C(Nc1ccc(OCc2ccc(F)cc2Cl)c(F)c1)c1coc2cc(OCc3nnn[nH]3)ccc12` [Compound 1-5, 6-((1H-tetrazol-5-yl)methoxy)-N-(4-((2-chloro-4-fluorobenzyl)oxy)-3-fluorophenyl)benzofuran-3-carboxamide] it is above 1000 nM.
The figure for `O=C(Nc1ccc(OCc2ccc(F)cc2Cl)c(F)c1)c1coc2cc(-c3nnn[nH]3)ccc12` [Compound 1-6, N-(4-((2-chloro-4-fluorobenzyl)oxy)-3-fluorophenyl)-6-(1H-tetrazol-5-yl)benzofuran-3-carboxamide] is 100 to 1000 nM.
With `O=C(Nc1ccc(OC2CCCC2)c(F)c1)c1coc2c(-c3nnn[nH]3)cccc12` [Compound 1-7, N-(4-(cyclopentyloxy)-3-fluorophenyl)-7-(1H-tetrazol-5-yl)benzofuran-3-carboxamide], the IC50 was above 1000 nM.
The figure for `O=C(Nc1ccc(OCc2ccc(F)cc2Cl)cc1)c1coc2cc(OCc3nnn[nH]3)ccc12` [Compound 1-8, 6-((1H-tetrazol-5-yl)methoxy)-N-(4-((2-chloro-4-fluorobenzyl)oxy)phenyl)benzofuran-3-carboxamide] is above 1000 nM; for `O=C(Nc1ccc(OC2CCCC2)c(F)c1F)c1coc2cc(-c3nnn[nH]3)ccc12` [Compound 1-9, N-(4-(cyclopentyloxy)-2,3-difluorophenyl)-6-(1H-tetrazol-5-yl)benzofuran-3-carboxamide] it is above 1000 nM; for `O=C(Nc1cc(F)c(OC2CCCC2)cc1F)c1coc2cc(-c3nnn[nH]3)ccc12` [Compound 1-10, N-(4-(cyclopentyloxy)-2,5-difluorophenyl)-6-(1H-tetrazol-5-yl)benzofuran-3-carboxamide] it is at most 100 nM.
The value for `O=C(Nc1ccc(OCc2ccc(F)cc2Cl)c(F)c1)c1coc2c(-c3nnn[nH]3)cccc12` [Compound 1-11, N-(4-((2-chloro-4-fluorobenzyl)oxy)-3-fluorophenyl)-7-(1H-tetrazol-5-yl)benzofuran-3-carboxamide] was above 1000 nM; that for `O=C(Nc1ccc(F)c(F)c1OC1CCCC1)c1coc2cc(-c3nnn[nH]3)ccc12` [Compound 1-12, N-(2-(cyclopentyloxy)-3,4-difluorophenyl)-6-(1H-tetrazol-5-yl)benzofuran-3-carboxamide] was above 1000 nM; that for `O=C(Nc1ccc(OCc2ccc(F)cc2Cl)cc1)c1coc2cc(-c3nnn[nH]3)ccc12` [Compound 1-13, N-(4-((2-chloro-4-fluorobenzyl)oxy)phenyl)-6-(1H-tetrazol-5-yl)benzofuran-3-carboxamide] was at most 100 nM.
The figure for `O=C(Nc1ccc(C2CCCC2)c(F)c1)c1coc2cc(-c3nnn[nH]3)ccc12` [Compound 1-14, N-(4-cyclopentyl-3-fluorophenyl)-6-(1H-tetrazol-5-yl)benzofuran-3-carboxamide] is at most 100 nM; for `CC1(Oc2ccc(NC(=O)c3coc4cc(-c5nnn[nH]5)ccc34)cc2F)CC1` [Compound 1-15, N-(3-fluoro-4-(1-methylcyclopropoxy)phenyl)-6-(1H-tetrazol-5-yl)benzofuran-3-carboxamide] it is at most 100 nM.
As to `CC1(Oc2ccc(NC(=O)c3coc4cc(-c5nnn[nH]5)c(F)cc34)cc2F)CC1` [Compound 1-16, 5-fluoro-N-(3-fluoro-4-(1-methylcyclopropoxy)phenyl)-6-(1H-tetrazol-5-yl)benzofuran-3-carboxamide], the IC50 is at most 100 nM.
On to `O=C(Nc1ccc(C2CCCC2)c(F)c1)c1coc2cc(-c3nnn[nH]3)c(F)cc12` [Compound 1-17, N-(4-cyclopentyl-3-fluorophenyl)-5-fluoro-6-(1H-tetrazol-5-yl)benzofuran-3-carboxamide], for which the IC50 is at most 100 nM.
The compound `O=C(Nc1ccc(OCc2ccc(F)cc2Cl)cc1)c1coc2cc(-c3nnn[nH]3)c(F)cc12` [Compound 1-18, N-(4-((2-chloro-4-fluorobenzyl)oxy)phenyl)-5-fluoro-6-(1H-tetrazol-5-yl)benzofuran-3-carboxamide] registered an IC50 of at most 100 nM.
`O=C(Nc1ccc(OCc2ccc(Cl)cc2Cl)cc1)c1coc2cc(-c3nnn[nH]3)c(F)cc12` [Compound 1-19, N-(4-((2,4-dichlorobenzyl)oxy)phenyl)-5-fluoro-6-(1H-tetrazol-5-yl)benzofuran-3-carboxamide] had an IC50 of 100 to 1000 nM.
As for `O=C(Nc1ccc(OC2CCCC2)c(F)c1)c1coc2cc(-c3nnn[nH]3)c(F)cc12` [Compound 1-20, N-(4-(cyclopentyloxy)-3-fluorophenyl)-5-fluoro-6-(1H-tetrazol-5-yl)benzofuran-3-carboxamide], the half-maximal inhibitory concentration (IC50) is at most 100 nM.
As to `O=C(Nc1ccc(O[C@H]2CCOC2)c(F)c1)c1coc2cc(-c3nnn[nH]3)c(F)cc12` [Compound 1-21, (S)-5-fluoro-N-(3-fluoro-4-((tetrahydrofuran-3-yl)oxy)phenyl)-6-(1H-tetrazol-5-yl)benzofuran-3-carboxamide], the 50% inhibitory concentration (IC50) is 100 to 1000 nM.
The figure for `O=C(Nc1ccc(O[C@@H]2CCOC2)c(F)c1)c1coc2cc(-c3nnn[nH]3)c(F)cc12` [Compound 1-22, (R)-5-fluoro-N-(3-fluoro-4-((tetrahydrofuran-3-yl)oxy)phenyl)-6-(1H-tetrazol-5-yl)benzofuran-3-carboxamide] is above 1000 nM; for `NC(=O)c1cc2occ(C(=O)Nc3ccc(OCc4ccc(F)cc4Cl)cc3)c2cc1F` [Compound 1-23, N3-(4-((2-chloro-4-fluorobenzyl)oxy)phenyl)-5-fluorobenzofuran-3,6-dicarboxamide] it is above 1000 nM.
`O=C(Nc1ccc(OCc2ccc(F)cc2Cl)cc1)c1coc2cc(-c3noc(=O)[nH]3)c(F)cc12` [Compound 1-24, N-(4-((2-chloro-4-fluorobenzyl)oxy)phenyl)-5-fluoro-6-(5-oxo-4,5-dihydro-1,2,4-oxadiazol-3-yl)benzofuran-3-carboxamide] yielded an IC50 of at most 100 nM.
The figure for `O=C(Nc1ccc(OC2CC(F)(F)C2)c(F)c1)c1coc2cc(-c3nnn[nH]3)c(F)cc12` [Compound 1-27, N-(4-(3,3-difluorocyclobutoxy)-3-fluorophenyl)-5-fluoro-6-(1H-tetrazol-5-yl)benzofuran-3-carboxamide] is 100 to 1000 nM.
In turn, `O=C(Nc1ccc(OC2COC2)c(F)c1)c1coc2cc(-c3nnn[nH]3)c(F)cc12` [Compound 1-28, 5-fluoro-N-(3-fluoro-4-(oxetan-3-yloxy)phenyl)-6-(1H-tetrazol-5-yl)benzofuran-3-carboxamide] showed an IC50 of 100 to 1000 nM.
Regarding `O=C(Nc1ccc(OCc2ccc(F)cc2Cl)cc1)c1coc2cc(Oc3nnn[nH]3)ccc12` [Compound 1-29, 6-((1H-tetrazol-5-yl)oxy)-N-(4-((2-chloro-4-fluorobenzyl)oxy)phenyl)benzofuran-3-carboxamide], the half-inhibitory concentration (IC50) is above 1000 nM.
The value for `O=C(Nc1ccc(N2CCC[C@H]2C(F)(F)F)c(F)c1)c1coc2cc(-c3nnn[nH]3)c(F)cc12` [Compound 1-32, (S)-5-fluoro-N-(3-fluoro-4-(2-(trifluoromethyl)pyrrolidin-1-yl)phenyl)-6-(1H-tetrazol-5-yl)benzofuran-3-carboxamide] was 100 to 1000 nM.
